{
  "source": "paper PMC8234864",
  "about": "“Early Effects of the Soluble Amyloid β25-35 Peptide in Rat Cortical Neurons: Modulation of Signal Transduction Mediated by Adenosine and Group I Metabotropic Glutamate Receptors” (International Journal of Molecular Sciences, 2021)",
  "key": {"rat cortical neurons": {"test_system": "rat cortical neurons", "assay": "MTT reduction cell viability assay after Aβ exposure", "type": "cell-based", "conditions": "for decrease in cell viability: MTT reduction, vs control", "description": "Aβ25-35 and Aβ1-42 were water-soluble peptides, however, while Aβ25-35, the functional domain of Aβ required for both neurotrophic and neurotoxic effects, was directly added to neuronal cultures after its solubilisation, Aβ1-42 was solved in water and maintained for 24 h at 37 °C before its addition to promote its aggregation. To test the effect of mGluR ligands on cell death induced by Aβ in neuronal cultures, these drugs were added 30 min before the addition of Aβ25-35 and maintained during Aβ exposure. Unless otherwise indicated, all chemicals were dissolved in water.\nCell viability was determined on 96-well plates using an in vitro toxicology assay kit based on a mitochondrial-dependent reaction that transforms 3-[4,5-dimetylthiazol-2-yl]-2,5-diphenyltetrazolium bromide (MTT) into formazan crystals. Briefly, at the end of treatments, cells were incubated in culture medium with MTT solution (5 mg/mL) at 37 °C for 3 h. After incubation, MTT solubilization solution (10% Triton X-100 plus 0.1 M HCl in isopropanol anhydrous) was added into the wells to dissolve formazan crystals and the absorbance of each well was measured at 570 nm and 690 nm, according to the manufacturer’s instructions."}, "Total mGluR": {"test_system": "Total mGluR", "assay": "L-[3H]glutamate radioligand binding in intact cortical neurons", "design": "species or system rat", "conditions": "for Total mGluR Bmax: L-[3H]Glutamate saturation binding", "description": "Metabotropic glutamate receptors were determined using the radioligand L-[^3H]glutamate, as described previously. Radioligand binding assays using intact cells were performed in 24-well plates. Briefly, cells were washed with serum-free DMEM buffered with 20 mM HEPES pH 7.4 and incubated for 60 min at 37 °C in a final volume of 250 µL, in the presence of 100 μM AMPA, 100 μM NMDA, and 100 μM kainate, to block glutamate binding to these receptor types; 10 μM of the glutamate uptake inhibitor D,L-threo-β-hydroxyaspartic acid; and increasing concentrations of L-[^3H] glutamate (200 nM to 1.2 µM). Non-labeled L-Glutamate in a concentration of 10^5 times higher than the radioligand was used to determine non-specific binding. After incubation, cells were washed with 500 µL of ice-cold buffer and disrupted with 0.2% SDS. Well contents were then transferred to vials and a scintillation liquid mixture was added to measure radioactivity. At least two wells from each plate were reserved for protein concentration measurement."}, "mGluR5": {"test_system": "mGluR5", "assay": "Extracellular immunostaining of mGluR5 in non-permeabilized neurons", "type": "cell-based, rat", "conditions": "25 µM, 24 h, whole-cell immunostaining", "description": "The quantitative analysis of the levels of Group I mGluR and mGluR2,3 at the plasma membrane was performed with extracellular targeted polyclonal antibodies (mGluR1, mGluR5 and mGluR2,3, Alomone Labs, Jerusalem, Israel), as previously described with minor modifications. Briefly, after 2 weeks in culture, the culture medium was removed and cells washed with Locke Buffer (LB, pH 7.4). Cells were then fixed with 4% paraformaldehyde for 10 min at room temperature and washed with three 10-min intervals with LB.\nNonspecific staining was suppressed by blocking with 3% normal goat serum in LB for 60 min. […]\nTo evaluate the degree of fluorescence intensity in cortical neurons, fluorescence was measured to estimate the protein expression in the different experimental conditions analyzed. Images (448.6 µm × 335.08 µm) obtained with a digital camera (Leica DFC350FX R2), attached to a Leica DMI6000B (Leica Microsystems, Wetzlar, Germany) fluorescent microscope, were used for quantification (20x HCX PL FLUOTAR 0.4 dry objective). […] Fluorescence intensity was estimated by averaging mean grey values. […] Data were normalized to the total number of cells in the analyzed fields. The mean fluorescence background, calculated in the unstained regions between neurons, was subtracted from the fluorescence intensity of each data point. […]"}, "[1]": {"conditions": "neurons exposed to 25 µM for 24 h"}, "[2]": {"conditions": "neurons exposed to 25 µM for 48 h"}},
  "note": "Where no end group is shown, it is not given here.",
  "data": [
    {"sequence": "GSNKGAIIGLM [Aβ25-35]", "values": [
      {"measurement": "decrease in cell viability", "setting": "rat cortical neurons; 25 µM, 24 h", "value": "~40", "unit": "%"},
      {"measurement": "cell viability", "setting": "rat cortical neurons; 25 µM, 48 h, MTT", "value": "decrease in cell viability"},
      {"measurement": "decrease in cell viability", "setting": "rat cortical neurons; 50 µM, 24 h", "value": "~40", "unit": "%"},
      {"measurement": "cell viability, concentration dependence", "setting": "rat cortical neurons; 1, 10, 25 and 50 µM, 24 h, MTT", "value": "concentration-dependent decrease in cell viability"},
      {"measurement": "mGluR affinity (1/KD), % of the control value", "setting": "Total mGluR; 25 µM, 24 or 48 h", "value": "~50", "unit": "%"},
      {"measurement": "Total mGluR density (Bmax) increase over control value", "setting": "Total mGluR; 25 µM, 24 h", "value": 61, "unit": "%"},
      {"measurement": "Total mGluR density (Bmax) increase over control value", "setting": "Total mGluR; 25 µM, 48 h", "value": 99, "unit": "%"},
      {"measurement": "Kd", "setting": "Total mGluR; [1]", "value": "1610 ± 423", "unit": "nM"},
      {"measurement": "Total mGluR Bmax", "setting": "Total mGluR; [1]", "value": "952 ± 9", "unit": "pmol/mg prot"},
      {"measurement": "Kd", "setting": "Total mGluR; [2]", "value": "1520 ± 163", "unit": "nM"},
      {"measurement": "Total mGluR Bmax", "setting": "Total mGluR; [2]", "value": "1178 ± 93", "unit": "pmol/mg prot"},
      {"measurement": "mGluR5 density at the membrane level vs control value", "setting": "mGluR5", "value": "twice over control value"}
    ]}
  ]
}
